In ChEMBL document CHEMBL1201862, “PubChem BioAssay data set” (2004):
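Each compound was tested at five concentrations against cells in 96-well plates for 48 hours. GI50: concentration for 50% inhibition of growth.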 Calls of active or inactive are those of the source. Cut-off read from the data, not from the text of the source: active = GI50 up to about 1.1 µM and inactive = higher.

Legend:
Test in all cases: NCI tumour cell line growth inhibition, 48 h
786-0 = tested on: 786-0
A549 = tested on: A549
ACHN = tested on: ACHN
BT-549 = tested on: BT-549
CAKI-1 = tested on: CAKI-1
CCRF-CEM = tested on: CCRF-CEM
COLO 205 = tested on: COLO 205
DU-145 = tested on: DU-145
EKVX = tested on: EKVX
HCC 2998 = tested on: HCC 2998
HCT-116 = tested on: HCT-116
HCT-15 = tested on: HCT-15
HOP-62 = tested on: HOP-62
HOP-92 = tested on: HOP-92
HT-29 = tested on: HT-29
Hs-578T = tested on: Hs-578T
IGROV-1 = tested on: IGROV-1
K562 = tested on: K562
KM12 = tested on: KM12
LOX IMVI = tested on: LOX IMVI
M14 = tested on: M14
MCF7 = tested on: MCF7
MDA-MB-231 = tested on: MDA-MB-231
MDA-MB-435 = tested on: MDA-MB-435
MDA-N = tested on: MDA-N
MOLT-4 = tested on: MOLT-4
Malme-3M = tested on: Malme-3M
NCI-H226 = tested on: NCI-H226
NCI-H23 = tested on: NCI-H23
NCI-H460 = tested on: NCI-H460
NCI-H522 = tested on: NCI-H522
NCI/ADR-RES = tested on: NCI/ADR-RES
OVCAR-3 = tested on: OVCAR-3
OVCAR-4 = tested on: OVCAR-4
OVCAR-5 = tested on: OVCAR-5
OVCAR-8 = tested on: OVCAR-8
PC-3 = tested on: PC-3
RPMI-8226 = tested on: RPMI-8226
SF-268 = tested on: SF-268
SF-295 = tested on: SF-295
SF-539 = tested on: SF-539
SK-MEL-28 = tested on: SK-MEL-28
SK-MEL-2 = tested on: SK-MEL-2
SK-MEL-5 = tested on: SK-MEL-5
SK-OV-3 = tested on: SK-OV-3
SN12C = tested on: SN12C
SNB-19 = tested on: SNB-19
SNB-75 = tested on: SNB-75
SW-620 = tested on: SW-620
T47D = tested on: T47D
TK-10 = tested on: TK-10
U-251 = tested on: U-251
UACC-257 = tested on: UACC-257
UACC-62 = tested on: UACC-62
UO-31 = tested on: UO-31
A498 = tested on: A498
HL-60 = tested on: HL-60
RXF 393 = tested on: RXF 393

## COc1ccc2c(c1)c1c(n2CCN(C)C)-c2ccccc2CC1
786-0
  GI50: 16.1 µM (inactive)
A549
  GI50: 15.6 µM (inactive)
ACHN
  GI50: 16.4 µM (inactive)
BT-549
  GI50: 16.9 µM (inactive)
CAKI-1
  GI50: 14.3 µM (inactive)
CCRF-CEM
  GI50: 11.3 µM (inactive)
COLO 205
  GI50: 12.5 µM (inactive)
DU-145
  GI50: 15.9 µM (inactive)
EKVX
  GI50: 9.77 µM (inactive)
HCC 2998
  GI50: 18.2 µM (inactive)
HCT-116
  GI50: 15.2 µM (inactive)
HCT-15
  GI50: 13.7 µM
HOP-62
  GI50: 16.4 µM (inactive)
HOP-92
  GI50: 16.5 µM (inactive)
HT-29
  GI50: 7.78 µM (inactive)
Hs-578T
  GI50: 17.6 µM (inactive)
IGROV-1
  GI50: 11.9 µM (inactive)
K562
  GI50: 11.5 µM (inactive)
KM12
  GI50: 14.4 µM (inactive)
LOX IMVI
  GI50: 16.6 µM (inactive)
M14
  GI50: 15.6 µM (inactive)
MCF7
  GI50: 18.3 µM (inactive)
MDA-MB-231
  GI50: 13.6 µM (inactive)
MDA-MB-435
  GI50: 16.5 µM (inactive)
MDA-N
  GI50: 16 µM (inactive)
MOLT-4
  GI50: 13.2 µM (inactive)
Malme-3M
  GI50: 20.3 µM (inactive)
NCI-H226
  GI50: 12.2 µM (inactive)
NCI-H23
  GI50: 18 µM (inactive)
NCI-H460
  GI50: 16.7 µM (inactive)
NCI-H522
  GI50: 18.5 µM (inactive)
NCI/ADR-RES
  GI50: 16.8 µM (inactive)
OVCAR-3
  GI50: 16.6 µM (inactive)
OVCAR-4
  GI50: 16.9 µM (inactive)
OVCAR-5
  GI50: 18.2 µM (inactive)
OVCAR-8
  GI50: 16.9 µM (inactive)
PC-3
  GI50: 12.6 µM (inactive)
RPMI-8226
  GI50: 13.7 µM (inactive)
SF-268
  GI50: 18.1 µM (inactive)
SF-295
  GI50: 16.9 µM (inactive)
SF-539
  GI50: 14 µM (inactive)
SK-MEL-28
  GI50: 15 µM (inactive)
SK-MEL-2
  GI50: 16.1 µM (inactive)
SK-MEL-5
  GI50: 14.9 µM (inactive)
SK-OV-3
  GI50: 20.2 µM (inactive)
SN12C
  GI50: 14.1 µM (inactive)
SNB-19
  GI50: 15.7 µM (inactive)
SNB-75
  GI50: 13.7 µM (inactive)
SW-620
  GI50: 16.8 µM (inactive)
T47D
  GI50: 14.5 µM (inactive)
TK-10
  GI50: 15.9 µM (inactive)
U-251
  GI50: 13.1 µM (inactive)
UACC-257
  GI50: 16.3 µM (inactive)
UACC-62
  GI50: 14.5 µM (inactive)
UO-31
  GI50: 13.5 µM (inactive)

## CC1(C)SC2C(NC(=O)C(C(=O)O)c3ccccc3)C(=O)N2C1C(=O)O (configuration not stated)
786-0
  GI50: > 100 µM (inactive)
A498
  GI50: > 100 µM (inactive)
ACHN
  GI50: > 100 µM (inactive)
BT-549
  GI50: > 100 µM (inactive)
CAKI-1
  GI50: > 100 µM (inactive)
CCRF-CEM
  GI50: > 100 µM (inactive)
COLO 205
  GI50: > 100 µM (inactive)
DU-145
  GI50: > 100 µM (inactive)
EKVX
  GI50: > 100 µM (inactive)
HCT-116
  GI50: > 100 µM (inactive)
HCT-15
  GI50: > 100 µM
HL-60
  GI50: > 100 µM (inactive)
HOP-62
  GI50: > 100 µM (inactive)
HT-29
  GI50: > 100 µM (inactive)
Hs-578T
  GI50: > 100 µM (inactive)
IGROV-1
  GI50: > 100 µM (inactive)
K562
  GI50: > 100 µM (inactive)
KM12
  GI50: > 100 µM (inactive)
LOX IMVI
  GI50: > 100 µM (inactive)
M14
  GI50: > 100 µM (inactive)
MCF7
  GI50: > 100 µM (inactive)
MDA-MB-231
  GI50: > 100 µM (inactive)
MDA-MB-435
  GI50: > 100 µM (inactive)
MDA-N
  GI50: > 100 µM (inactive)
MOLT-4
  GI50: > 100 µM (inactive)
Malme-3M
  GI50: > 100 µM (inactive)
NCI-H226
  GI50: > 100 µM (inactive)
NCI-H23
  GI50: > 100 µM (inactive)
NCI/ADR-RES
  GI50: > 100 µM (inactive)
OVCAR-3
  GI50: > 100 µM (inactive)
OVCAR-5
  GI50: > 100 µM (inactive)
OVCAR-8
  GI50: > 100 µM (inactive)
PC-3
  GI50: > 100 µM (inactive)
RPMI-8226
  GI50: > 100 µM (inactive)
RXF 393
  GI50: > 100 µM (inactive)
SF-268
  GI50: > 100 µM (inactive)
SF-295
  GI50: > 100 µM (inactive)
SF-539
  GI50: > 100 µM (inactive)
SK-MEL-28
  GI50: > 100 µM (inactive)
SK-MEL-2
  GI50: > 100 µM (inactive)
SK-MEL-5
  GI50: > 100 µM (inactive)
SK-OV-3
  GI50: > 100 µM (inactive)
SN12C
  GI50: > 100 µM (inactive)
SNB-19
  GI50: > 100 µM (inactive)
SNB-75
  GI50: 92 µM (inactive)
SW-620
  GI50: > 100 µM (inactive)
T47D
  GI50: > 100 µM (inactive)
TK-10
  GI50: > 100 µM (inactive)
U-251
  GI50: > 100 µM (inactive)
UACC-257
  GI50: > 100 µM (inactive)
UACC-62
  GI50: > 100 µM (inactive)
UO-31
  GI50: > 100 µM (inactive)
